According to patent publication US5252495A, “Immunoassay for physostigmine” (priority 1992, dated 1993):
Read-outs that look alike come from different tables or passages of the source.

What was measured:
[1] = cited from earlier work
[2] = Physostigmine pharmacokinetics and tissue concentrations in rats after intramuscular administration; type: in vivo, Male Sprague-Dawley rats; settings: 0.3 mg/kg intramuscular; for concentration at 0.5 h: 30 min; for concentration at 0.75 h: 45 min; for concentration at 1 h: 60 min; for concentration at 1.5 h: 90 min; for concentration at 2 h: 120 min
Protocol: To study the pharmakinetics of physostigmine and validate the RIA and the antibody specificity of the present invention, rat studies were conducted. Male Sprague-Dawley rats weighing approximately 500 grams were housed two per cage at 23° C. with a twelve hour on-off light cycle. The animals were given food and water ad libitum. After sixty days, food was withheld for twelve hours. Physostigmine, comprised of a physostigmine base dissolved in a small volume of dilute hydrochloric acid and then diluted with phosphate buffered saline, with the pH of the solution adjusted to 6.0 was administered (0.3 mg. of the physostigmine solution/Kg) intramuscularly to the rats. Groups of three animals were sacrificed by using inhalation anesthetic, Fluothane (0.01% thymol, w/w; and 0.00025% ammonia, w/w) Ayerst Laboratories, New York, […] Blood, collected via heart puncture, and tissue samples were taken. Brain, fat, heart, muscle and spleen were removed and frozen on dry ice immediately. On the date of analysis the plasma and tissue samples were thawed. The tissues were weighed and homogenized with an equal volume of cold solution of 10 mM EDTA, 150 mM NaCl and 0.5% triton X-100, pH 7.4. The suspension Was centrifuged at 15,000×g in a Sorvall RC-5B centrifuge (Dupont) for 30 min at 4° C. The supernatent was collected and the pellet was Washed and centrifuged. The supernatants were combined and filtered through 1 um pore size filters (RC 60, 9 mm diameter from Schleicher and Schuell Inc., Keene, N.H.) and 100 ul of the filtrate was injected into the HPLC column.
The blood and tissue samples were used to determine the concentration of physostigmine as a function of time. FIG. 3 gives the physostigmine level in the plasma of three male rats for each time interval as determined by the RIA of the present invention, while Table 4 presents the concentration of physostigmine in various organs as a function of time.

[3] = Stability of physostigmine in rat plasma; type: in vitro ADME; settings: for Amount Recovered: rat plasma
Protocol: To show the stability of physostigmine in biological fluids, physostigmine was added to 2 portions of rat plasma. One half of the plasma was kept at room temperature and the other was kept at 4° C. Aliquots which originally contained 3.6 ng of physostigmine were assayed at various times. […] Since the samples were cooled and processed at 4° C., corrections for loss of physostigmine were unnecessary.

[4] = cited from earlier work; remark: listed apart in the source
[5] = rat, brain, im, read-out: Tissue concentration of physostigmine, Brain
[6] = rat, fat, im, read-out: Tissue concentration of physostigmine, Fat
[7] = rat, heart, im, read-out: Tissue concentration of physostigmine, Heart
[8] = rat, muscle, im, read-out: Tissue concentration of physostigmine, Muscle
[9] = rat, spleen, im, read-out: Tissue concentration of physostigmine, Spleen

What does the source list for `CNC(=O)Oc1ccc2c(c1)[C@]1(C)CCN(C)[C@@H]1N2C` [Physostigmine, physostigmine]?
lipid solubility [1]: high degree of lipid solubility; solubility in biological fluids [1]: soluble in biological fluids; Tissue concentration of physostigmine, Brain ([2]; 180 min): 0.00 ng/g; Tmax ([2]; im, rat, spleen, read-out: time during which spleen levels continued to increase (converted)): 20 min; estimated plasma half-life during the rapid decline phase ([2]; rat): approximately 15 min; time until present in all of the tissues studied ([2]; rat): ≤ 2.5 min; tissue distribution ([2]; rat): rapidly distributed to central as well as peripheral tissues; tissues with highest tissue concentrations ([2]; rat): heart and spleen; concentration at 2.5 min [2, 5]: 331 ng/g; concentration at 5 min [2, 5]: 297 ng/g; concentration at 10 min [2, 5]: 292 ng/g; concentration at 20 min [2, 5]: 198 ng/g; concentration at 0.5 h [2, 5]: 173 ng/g; concentration at 0.75 h [2, 5]: 45.6 ng/g; concentration at 1 h [2, 5]: 15.7 ng/g; concentration at 1.5 h [2, 5]: 3.05 ng/g; concentration at 2 h [2, 5]: 0.53 ng/g; concentration at 2.5 min [2, 6]: 230 ng/g; concentration at 5 min [2, 6]: 533 ng/g; concentration at 10 min [2, 6]: 398 ng/g; concentration at 20 min [2, 6]: 360 ng/g; concentration at 0.5 h [2, 6]: 292 ng/g; concentration at 0.75 h [2, 6]: 95 ng/g; concentration at 1 h [2, 6]: 86.3 ng/g; concentration at 1.5 h [2, 6]: 80.5 ng/g; concentration at 2 h [2, 6]: 58.6 ng/g; concentration at 3 h ([2]; rat, fat, im, 180 min, read-out: Tissue concentration of physostigmine, Fat): 10.3 ng/g; concentration at 2.5 min [2, 7]: 332 ng/g; concentration at 5 min [2, 7]: 785 ng/g; concentration at 20 min [2, 7]: 371 ng/g; concentration at 0.5 h [2, 7]: 213 ng/g; concentration at 0.75 h [2, 7]: 79.2 ng/g; concentration at 1 h [2, 7]: 78.5 ng/g; concentration at 1.5 h [2, 7]: 66.9 ng/g; concentration at 2 h [2, 7]: 47.2 ng/g; concentration at 3 h ([2]; rat, heart, im, 180 min, read-out: Tissue concentration of physostigmine, Heart): 48.7 ng/g; concentration at 2.5 min [2, 8]: 321 ng/g; concentration at 5 min [2, 8]: 225 ng/g; concentration at 10 min [2, 8]: 540 ng/g; concentration at 20 min [2, 8]: 323 ng/g; concentration at 0.5 h [2, 8]: 243 ng/g; concentration at 0.75 h [2, 8]: 241 ng/g; concentration at 1 h [2, 8]: 86 ng/g; concentration at 1.5 h [2, 8]: 70 ng/g; concentration at 2 h [2, 8]: 35 ng/g; concentration at 3 h ([2]; rat, muscle, im, 180 min, read-out: Tissue concentration of physostigmine, Muscle): 37.5 ng/g; concentration at 2.5 min [2, 9]: 322 ng/g; concentration at 5 min [2, 9]: 627 ng/g; concentration at 10 min [2, 9]: 955 ng/g; concentration at 20 min [2, 9]: 986 ng/g; concentration at 0.5 h [2, 9]: 912 ng/g; concentration at 0.75 h [2, 9]: 835 ng/g; concentration at 1 h [2, 9]: 540 ng/g; concentration at 1.5 h [2, 9]: 358 ng/g; concentration at 2 h [2, 9]: 227 ng/g; concentration at 3 h ([2]; rat, spleen, im, 180 min, read-out: Tissue concentration of physostigmine, Spleen): 55.6 ng/g; Amount Recovered ([3]; 4° C., 0 min, originally 3.6 ng): 3.6 ng; Amount Recovered ([3]; 4° C., 15 min): 3.4 ng; Amount Recovered ([3]; 4° C., 30 min): 3.6 ng; Amount Recovered ([3]; 4° C., 1 hr): 3.8 ng; Amount Recovered ([3]; 4° C., 2 hr): 3.6 ng; Amount Recovered ([3]; 4° C., 3 hr): 3.6 ng; Amount Recovered ([3]; 4° C., 4 hr): 3.6 ng; Amount Recovered ([3]; 23° C., 0 min, originally 3.6 ng): 3.6 ng; Amount Recovered ([3]; 23° C., 15 min): 3.3 ng; Amount Recovered ([3]; 23° C., 30 min): 3.1 ng; Amount Recovered ([3]; 23° C., 1 hr): 2.7 ng; Amount Recovered ([3]; 23° C., 2 hr): 2.8 ng; Amount Recovered ([3]; 23° C., 3 hr): 2.8 ng; Amount Recovered ([3]; 23° C., 4 hr): 2.8 ng; remaining at 3 h ([3]; rat, plasma, kept at 4° C. for 3 hr, read-out: physostigmine recovered from plasma samples): > 95%; remaining at 0.25 h ([3]; rat, plasma, processed within 15 min. at room temperature, read-out: physostigmine recovered from plasma samples): > 95%; adverse muscarinic effects ([4]; certain patients): nausea, vomiting, diarrhea, miosis, excessive salivation and sweating, abdominal cramps, bradycardia, bronchial secretion and bronchospasm; toxic level relative to therapeutic level ([4]; clinical use): toxic at levels very close to those which produce therapeutic results; effect of substantial over administration ([4]; overdose): cholinergic crisis leading to death; other side effects ([4]; thrombophlebitis if administered intravenously): generalized weakness, muscle cramps, fasciculation, hypotension, and, if administered intraveneously, thrombophlebitis
